Measured values reported in PubChem BioAssay (NCI).
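Briefly, cells in 96-well plates were exposed to five compound concentrations for 48 h, and endpoints were estimated by linear interpolation. At the TGI there is no net growth.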

What was measured:
Test in all cases: NCI tumour cell line growth inhibition, 48 h
HCC-2998 colon = system: HCC-2998 colon
HOP-92 NSCLC = system: HOP-92 NSCLC
T-47D breast = system: T-47D breast
U251 CNS = system: U251 CNS
RXF 393 renal = system: RXF 393 renal
SF-295 CNS = system: SF-295 CNS
NCI/ADR-RES ovarian = system: NCI/ADR-RES ovarian
HT29 colon = system: HT29 colon
HL-60(TB) leukemia = system: HL-60(TB) leukemia
HS 578T breast = system: HS 578T breast
SK-OV-3 ovarian = system: SK-OV-3 ovarian
SK-MEL-5 melanoma = system: SK-MEL-5 melanoma
MALME-3M melanoma = system: MALME-3M melanoma
DU-145 prostate = system: DU-145 prostate
SN12C renal = system: SN12C renal
NCI-H226 lung = system: NCI-H226 lung
SW-620 colon = system: SW-620 colon
SK-MEL-28 melanoma = system: SK-MEL-28 melanoma
HOP-62 NSCLC = system: HOP-62 NSCLC
LOX IMVI melanoma = system: LOX IMVI melanoma
CCRF-CEM leukemia = system: CCRF-CEM leukemia
MDA-N = system: MDA-N
UACC-257 melanoma = system: UACC-257 melanoma
NCI-H522 lung = system: NCI-H522 lung
UO-31 renal = system: UO-31 renal
IGROV1 ovarian = system: IGROV1 ovarian
OVCAR-3 ovarian = system: OVCAR-3 ovarian
OVCAR-8 ovarian = system: OVCAR-8 ovarian
HCT-15 colon = system: HCT-15 colon
TK-10 renal = system: TK-10 renal
RPMI-8226 leukemia = system: RPMI-8226 leukemia
A498 renal = system: A498 renal
COLO 205 colon = system: COLO 205 colon
MCF7 breast = system: MCF7 breast
SF-539 CNS = system: SF-539 CNS
KM12 colon = system: KM12 colon
PC-3 prostate = system: PC-3 prostate
ACHN renal = system: ACHN renal
A549 NSCLC = system: A549 NSCLC
NCI-H23 lung = system: NCI-H23 lung
MOLT-4 leukemia = system: MOLT-4 leukemia
HCT-116 colon = system: HCT-116 colon
OVCAR-5 ovarian = system: OVCAR-5 ovarian
SR leukemia = system: SR leukemia
NCI-H460 lung = system: NCI-H460 lung
SNB-19 CNS = system: SNB-19 CNS
OVCAR-4 ovarian = system: OVCAR-4 ovarian
786-0 renal = system: 786-0 renal
UACC-62 melanoma = system: UACC-62 melanoma
SF-268 CNS = system: SF-268 CNS
BT-549 breast = system: BT-549 breast
SNB-75 CNS = system: SNB-75 CNS
CAKI-1 renal = system: CAKI-1 renal
K-562 leukemia = system: K-562 leukemia
M14 melanoma = system: M14 melanoma
MDA-MB-435 = system: MDA-MB-435
MDA-MB-231 breast = system: MDA-MB-231 breast
SK-MEL-2 melanoma = system: SK-MEL-2 melanoma
EKVX NSCLC = system: EKVX NSCLC

`CCCCCCCCCCCCCCCCCCNc1ccn(C2OC(CO)C(OP(=O)(O)OCC(COP(=O)(O)OCC3OC(n4cc(F)c(NCCCCCCCCCCCCCCCCCC)nc4=O)CC3O)OC(=O)CCCCCCCCCCCCCCC)C2O)c(=O)n1` (stereo not drawn) was tested, and the TGI (HCC-2998 colon) was over 100 µM, the TGI (HOP-92 NSCLC) was over 100 µM and the TGI (T-47D breast) was over 100 µM. It also gave a TGI (U251 CNS) of over 100 µM, a TGI (RXF 393 renal) of over 100 µM and a TGI (SF-295 CNS) of over 100 µM. For the same compound, the TGI (NCI/ADR-RES ovarian) was over 100 µM, the TGI (HT29 colon) was over 100 µM and the TGI (HL-60(TB) leukemia) was over 100 µM. It also gave a TGI (HS 578T breast) of over 100 µM, a TGI (SK-OV-3 ovarian) of over 100 µM and a TGI (SK-MEL-5 melanoma) of over 100 µM. For the same compound, the TGI (MALME-3M melanoma) was over 100 µM, the TGI (DU-145 prostate) was over 100 µM and the TGI (SN12C renal) was over 100 µM. It also gave a TGI (NCI-H226 lung) of over 100 µM, a TGI (SW-620 colon) of over 100 µM and a TGI (SK-MEL-28 melanoma) of over 100 µM. The TGI (HOP-62 NSCLC) was over 100 µM, the TGI (LOX IMVI melanoma) was over 100 µM and the TGI (CCRF-CEM leukemia) was over 100 µM. For the same compound, the TGI (MDA-N) was over 100 µM, the TGI (UACC-257 melanoma) was over 100 µM and the TGI (NCI-H522 lung) was over 100 µM. For the same compound, the TGI (UO-31 renal) was over 100 µM, the TGI (IGROV1 ovarian) was over 100 µM and the TGI (OVCAR-3 ovarian) was over 100 µM. For the same compound, the TGI (OVCAR-8 ovarian) was over 100 µM, the TGI (HCT-15 colon) was over 100 µM and the TGI (TK-10 renal) was over 100 µM. For the same compound, the TGI (RPMI-8226 leukemia) was over 100 µM, the TGI (A498 renal) was over 100 µM and the TGI (COLO 205 colon) was over 100 µM. The TGI (MCF7 breast) was over 100 µM, the TGI (SF-539 CNS) was over 100 µM and the TGI (KM12 colon) was over 100 µM. It also gave a TGI (PC-3 prostate) of over 100 µM, a TGI (ACHN renal) of over 100 µM and a TGI (A549 NSCLC) of over 100 µM. It also gave a TGI (NCI-H23 lung) of over 100 µM, a TGI (MOLT-4 leukemia) of over 100 µM and a TGI (HCT-116 colon) of over 100 µM. The TGI (OVCAR-5 ovarian) was over 100 µM, the TGI (SR leukemia) was over 100 µM and the TGI (NCI-H460 lung) was over 100 µM. It also gave a TGI (SNB-19 CNS) of over 100 µM, a TGI (OVCAR-4 ovarian) of over 100 µM and a TGI (786-0 renal) of over 100 µM. For the same compound, the TGI (UACC-62 melanoma) was over 100 µM, the TGI (SF-268 CNS) was over 100 µM and the TGI (BT-549 breast) was over 100 µM. It also gave a TGI (SNB-75 CNS) of over 100 µM, a TGI (CAKI-1 renal) of over 100 µM and a TGI (K-562 leukemia) of over 100 µM. The TGI (M14 melanoma) was over 100 µM, the TGI (MDA-MB-435) was over 100 µM and the TGI (MDA-MB-231 breast) was over 100 µM. It also gave a TGI (SK-MEL-2 melanoma) of over 100 µM and a TGI (EKVX NSCLC) of over 100 µM.
With `CCOC(=O)C1C(=O)CC(O)(c2ccccc2)C(C(=O)OCC)C1c1ccc(N(C)C)cc1` (stereo not drawn) the TGI (HCC-2998 colon) was over 100 µM, the TGI (HOP-92 NSCLC) was over 81.7 µM and the TGI (T-47D breast) was over 92.5 µM. The TGI (U251 CNS) was over 81.2 µM, the TGI (RXF 393 renal) was 44.4 µM and the TGI (SF-295 CNS) was 29.8 µM. The TGI (NCI/ADR-RES ovarian) was over 78.2 µM, the TGI (HT29 colon) was over 58.5 µM and the TGI (HL-60(TB) leukemia) was 40 µM. It also gave a TGI (HS 578T breast) of 23.1 µM, a TGI (SK-OV-3 ovarian) of 52 µM and a TGI (SK-MEL-5 melanoma) of 72.3 µM. For the same compound, the TGI (MALME-3M melanoma) was over 85.6 µM, the TGI (DU-145 prostate) was over 100 µM and the TGI (SN12C renal) was over 100 µM. It also gave a TGI (NCI-H226 lung) of over 100 µM, a TGI (SW-620 colon) of over 100 µM and a TGI (SK-MEL-28 melanoma) of over 100 µM. The TGI (HOP-62 NSCLC) was over 88.8 µM, the TGI (LOX IMVI melanoma) was over 100 µM and the TGI (CCRF-CEM leukemia) was over 65.1 µM. It also gave a TGI (MDA-N) of 33.7 µM, a TGI (UACC-257 melanoma) of over 100 µM and a TGI (NCI-H522 lung) of 30.7 µM. For the same compound, the TGI (UO-31 renal) was over 100 µM, the TGI (IGROV1 ovarian) was over 100 µM and the TGI (OVCAR-3 ovarian) was over 75.1 µM. For the same compound, the TGI (OVCAR-8 ovarian) was over 65.9 µM, the TGI (HCT-15 colon) was over 100 µM and the TGI (TK-10 renal) was over 100 µM. For the same compound, the TGI (RPMI-8226 leukemia) was 37.4 µM, the TGI (A498 renal) was over 100 µM and the TGI (COLO 205 colon) was 53.5 µM. For the same compound, the TGI (MCF7 breast) was over 100 µM, the TGI (SF-539 CNS) was 37 µM and the TGI (KM12 colon) was over 100 µM. The TGI (PC-3 prostate) was over 100 µM, the TGI (ACHN renal) was over 100 µM and the TGI (A549 NSCLC) was over 100 µM. It also gave a TGI (NCI-H23 lung) of over 93.9 µM, a TGI (MOLT-4 leukemia) of over 84.1 µM and a TGI (HCT-116 colon) of over 100 µM. For the same compound, the TGI (OVCAR-5 ovarian) was over 100 µM, the TGI (SR leukemia) was 49.1 µM and the TGI (NCI-H460 lung) was over 83.8 µM. It also gave a TGI (SNB-19 CNS) of over 79.9 µM, a TGI (OVCAR-4 ovarian) of over 100 µM and a TGI (786-0 renal) of over 100 µM. It also gave a TGI (UACC-62 melanoma) of over 100 µM, a TGI (SF-268 CNS) of over 93.5 µM and a TGI (BT-549 breast) of over 100 µM. It also gave a TGI (SNB-75 CNS) of 64.9 µM, a TGI (CAKI-1 renal) of over 100 µM and a TGI (K-562 leukemia) of over 100 µM. For the same compound, the TGI (M14 melanoma) was over 100 µM, the TGI (MDA-MB-435) was 25.9 µM and the TGI (MDA-MB-231 breast) was over 77.1 µM. It also gave a TGI (SK-MEL-2 melanoma) of over 94 µM and a TGI (EKVX NSCLC) of over 100 µM.
